In US11319299B2, “Substituted carboxamides as inhibitors of WDR5 protein-protein binding” (PROPELLON THERAPEUTICS INC., priority 2016, dated 2022):
Like-named read-outs stand apart in the source and are kept apart here.

What was measured:
[1] = test system: MV4-11 cells; experiment: Cell proliferation assay (ATPlite); format: cell-based; settings: Homo sapiens, MV4-11, 120 h; MV-411 cells, five days; read-out: In vitro whole cell potency in MV-411 cells, (IC50)
Method in brief: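 Read-out is ATP-based luminescence (ATPlite) after 5 days of culture at 37° C under 5% CO2. Compounds were given as 10-point dilutions starting at 10 μM to MV4-11 cells, seeded at 1,000 cells/well in Alpha-MEM plus 10% FBS.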

[2] = test system: H3K4 dimethylation (H3K4me2) in T24 cells; experiment: Detection of in-cell H3K4 dimethylation (AlphaLisa); format: cell-based; settings: Homo sapiens, T-24, 120 h, five days, read-out: In vitro whole cell potency in T24 cells, H3K4Me2 (IC50)
Protocol: (iii) Detection of In-Cell H3K4 Dimethylation
T24 cells were seeded into a 96-well plate at 400 cells/well in 150 μl medium (McCoy 5A containing 10% FBS, 100 μg/ml Normocin, and 50 μg/ml Gentamycin, Invitrogen). A HP D300 digital dispenser was used to dose cells with DMSO or test compounds across a 10-point range of concentrations (high dose of 10 μM), and cultures were grown in a humidified 5% CO2 incubator at 37° C. After five days, plates were removed from incubator, media was aspirated, and the cells washed in PBS. Cell lysis, histone extraction, and detection of H3K4 dimethylation (H3K4me2) were performed using an AlphaLisa kit according to the manufacturer's instructions (Perkin Elmer). Signal was measured using an Envision plate reader.

[3] = target: T1, WDR5 (Homo sapiens (Human), UniProt P61964); settings: previous studies, J. Med. Chem. 2010, 53: 5179-5185; J. Am. Chem. Soc. 2013, 135: 669-682; read-out: Ki, binding affinity to WDR5; cited from earlier work
[4] = target: T1, WDR5; experiment: Surface Plasmon Resonance (SPR) assay, KD and residence time; format: binding; settings: read-out: WDR5 binding affinity (KD)
[5] = surface plasmon resonance (SPR)
[6] = surface plasmon resonance (SPR) assay

IC50 [1] [nM] | IC50 [2] [nM] | Kd [4, 5] [nM] | Kd [4, 6] [nM] | Compound | Ki [3] [nM]
749 | 882 | – | – | CN1CCN(c2cc(F)c(-c3cnc(N4CCOCC4)nc3)cc2NC(=O)c2c[nH]c(=O)cc2C(F)(F)F)CC1 [Example 3, N-(4-fluoro-2-(4-methylpiperazin-1-yl)-5-(2-morpholinopyrimidin-5-yl)phenyl)-6-oxo-4-(trifluoromethyl)-1,6-dihydropyridine-3-carboxamide] | –
51 | 166 | – | – | C[C@H]1CN(c2cc(F)c(-c3cnc(N4CCOCC4)nc3)cc2NC(=O)c2c[nH]c(=O)cc2C(F)(F)F)CCN1C [Example 7, (S)—N-(2-(3,4-dimethylpiperazin-1-yl)-4-fluoro-5-(2-morpholinopyrimidin-5-yl)phenyl)-6-oxo-4-(trifluoromethyl)-1,6-dihydropyridine-3-carboxamide] | –
– | 144 | – | – | C[C@@H]1CN(c2cc(F)c(-c3cnc(N4CCOCC4)nc3)cc2NC(=O)c2c[nH]c(=O)cc2C(F)(F)F)C[C@H](C)N1C [Example 8, N-(4-fluoro-5-(2-morpholinopyrimidin-5-yl)-2-((3R,5S)-3,4,5-trimethylpiperazin-1-yl)phenyl)-6-oxo-4-(trifluoromethyl)-1,6-dihydropyridine-3-carboxamide] | –
828 | 1070 | – | – | C[C@@H]1CN(c2cc(F)c(-c3cnc(N4CCOCC4)nc3)cc2NC(=O)c2c[nH]c(=O)cc2C(F)(F)F)CCN1C [Example 6, (R)—N-(2-(3,4-dimethylpiperazin-1-yl)-4-fluoro-5-(2-morpholinopyrimidin-5-yl)phenyl)-6-oxo-4-(trifluoromethyl)-1,6-dihydropyridine-3-carboxamide] | –
213 | 626 | – | – | C[C@@H]1CN(c2cc(F)c(-c3ccc(OCC4CC4)nc3)cc2NC(=O)c2c[nH]c(=O)cc2C(F)(F)F)C[C@H](C)N1C [Example 39, N-[5-[6-(cyclopropylmethoxy)pyridin-3-yl]-4-fluoro-2-[(3S,5R)-3,4,5-trimethylpiperazin-1-yl]phenyl]-6-oxo-4-(trifluoromethyl)-1H-pyridine-3-carboxamide] | –
– | – | – | – | Ac-A-R-A-NH2 | 120000
52 | – | 0.779 | – | CC(C)OC(=O)N1CC=C(c2cc(NC(=O)c3c[nH]c(=O)cc3C(F)(F)F)c(N3C[C@@H](C)N(C)[C@@H](C)C3)cc2F)C1 [Example 600, Propan-2-yl 3-[2-fluoro-5-[[6-oxo-4-(trifluoromethyl)-1H-pyridine-3-carbonyl]amino]-4-[(3R,5S)-3,4,5-trimethylpiperazin-1-yl]phenyl]-2,5-dihydropyrrole-1-carboxylate] | –
149 | – | – | 1.19 | CC1CN(c2cc(F)c(-c3cnc(N4C[C@@H](C)O[C@@H](C)C4)nc3)cc2NC(=O)c2cn(C)c(=O)cc2C(F)F)CCN1C (stereo in doubt) [Example 383, 4-(difluoromethyl)-N-[4-fluoro-5-[2-[(2R,6S)-2,6-dimethylmorpholin-4-yl]pyrimidin-5-yl]-2-[(3R)-3,4-dimethylpiperazin-1-yl]phenyl]-1-methyl-6-oxopyridine-3-carboxamide] | –
118 | – | – | 2.08 | CC1CN(c2cc(F)c(-c3cnc(N4CCN(C)CC4)nc3)cc2NC(=O)c2cn(C)c(=O)cc2C(F)(F)F)CCN1C (stereo in doubt) [Example 279, N-[4-fluoro-5-[2-(4-methylpiperazin-1-yl)pyrimidin-5-yl]-2-[(3R)-3,4-dimethylpiperazin-1-yl]phenyl]-1-methyl-6-oxo-4-(trifluoromethyl)pyridine-3-carboxamide] | –
24 | – | 3.97 | – | C[C@@H]1CN(c2cc(F)c(-c3nc(C(=O)N(C)CC4CC4)cs3)cc2NC(=O)c2c[nH]c(=O)cc2C(F)(F)F)C[C@H](C)N1C [Example 483, N-(cyclopropylmethyl)-2-[2-fluoro-5-[[6-oxo-4-(trifluoromethyl)-1H-pyridine-3-carbonyl]amino]-4-[(3R,5S)-3,4,5-trimethylpiperazin-1-yl]phenyl]-N-methyl-1,3-thiazole-4-carboxamide] | –
48 | – | – | 2.17 | C[C@@H]1CN(c2cc(F)c(-c3cnc(N4CCOCC4)nc3)cc2NC(=O)c2cn(C)c(=O)cc2C(F)(F)F)C[C@H](C)N1C [Example 93, N-[4-fluoro-5-(2-morpholin-4-ylpyrimidin-5-yl)-2-[(3R,5S)-3,4,5-trimethylpiperazin-1-yl]phenyl]-1-methyl-6-oxo-4-(trifluoromethyl)pyridine-3-carboxamide] | –
62 | – | 0.493 | – | C[C@@H]1CN(c2ncc(-c3cc(NC(=O)c4ccc(F)cc4C(F)(F)F)c(N4CCN(C)[C@H](C)C4)cc3F)cn2)CCO1 (stereo in doubt) [Example 452, 4-fluoro-N-[4-fluoro-2-[(3R)-3,4-dimethylpiperazin-1-yl]-5-[2-[(2R)-2-methylmorpholin-4-yl]pyrimidin-5-yl]phenyl]-2-(trifluoromethyl)benzamide] | –
44 | – | 0.899 | – | C[C@@H]1CN(c2ncc(-c3cc(NC(=O)c4c[nH]c(=O)cc4C(F)F)c(N4CCN(C)[C@H](C)C4)cc3F)cn2)CCO1 (stereo in doubt) [Example 398, 4-(difluoromethyl)-N-[4-fluoro-2-[(3R)-3,4-dimethylpiperazin-1-yl]-5-[2-[(2R)-2-methylmorpholin-4-yl]pyrimidin-5-yl]phenyl]-6-oxo-1H-pyridine-3-carboxamide] | –
89 | – | 1.08 | – | C[C@@H]1CN(c2ncc(-c3cc(NC(=O)c4ccc(F)cc4C(F)(F)F)c(N4CCN(C)[C@@H](C)C4)cc3F)cn2)CCO1 [Example 456, 4-fluoro-N-[4-fluoro-2-[(3S)-3,4-dimethylpiperazin-1-yl]-5-[2-[(2R)-2-methylmorpholin-4-yl]pyrimidin-5-yl]phenyl]-2-(trifluoromethyl)benzamide] | –
120 | – | – | 0.769 | C[C@@H]1CN(c2cc(F)c(-c3cnc(N(C)C)c(F)c3)cc2NC(=O)c2c[nH]c(=O)cc2C(F)(F)F)C[C@H](C)N1C [Example 221, N-[5-[6-(dimethylamino)-5-fluoropyridin-3-yl]-4-fluoro-2-[(3R,5S)-3,4,5-trimethylpiperazin-1-yl]phenyl]-6-oxo-4-(trifluoromethyl)-1H-pyridine-3-carboxamide] | –
